Where two headings read alike, the source gives them in different places.

In the test the target is T1, G protein-coupled receptor 119 (GPR-119) (Mesocricetus auratus, UniProt A0A1U8CD06).
T1 construct: hamster-derived β-cells containing G protein-coupled receptor 119 (GPR-119), HIT-T15 cells; host or cells: HIT-T15 (hamster pancreatic β-cells)
T1 sequence (A0A1U8CD06 1-334): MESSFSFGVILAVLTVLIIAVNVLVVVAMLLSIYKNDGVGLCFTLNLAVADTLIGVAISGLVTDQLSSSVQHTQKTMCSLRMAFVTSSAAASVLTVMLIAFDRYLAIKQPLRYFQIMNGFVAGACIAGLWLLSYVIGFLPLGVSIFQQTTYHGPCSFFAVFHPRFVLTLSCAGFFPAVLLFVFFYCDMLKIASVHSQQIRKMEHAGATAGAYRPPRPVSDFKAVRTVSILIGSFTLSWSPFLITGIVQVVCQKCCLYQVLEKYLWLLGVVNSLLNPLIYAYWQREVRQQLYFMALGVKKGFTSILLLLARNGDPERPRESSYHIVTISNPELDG
As to the kind of experiment: Evaluation of cAMP activity in HIT-T15 cells (HTRF cAMP dynamic kit). Particulars: cAMP activation. The format is cell-based, hamster. Here is the method: To check whether the cyclohexene derivatives according to the present invention activate cyclic adenosine monophosphate (cAMP), experiments were carried out, as follows.
The HIT-T15 cells were plated on a 96-well plate at 60,000 cells per well. On the next day of plating, the cells were treated with a varying concentration of each of the example compounds according to the present invention, and incubated at 37° C. for an hour. In this case, each of the treated compounds was used at six concentrations, ranging from […], to treat the cells.
The cyclic adenosine monophosphate (cAMP) activity was measured according to the manufacturer's instruction using a cAMP dynamic kit commercially available from Cis Bio Inc. (Bedford, Mass.). The cells were lysed, and a level of cAMP was determined by a competitive immunoassay using D2-labeled cAMP and a cryptate-labeled anti-cAMP antibody. Fluorescence was read in Flex Station (Molecular Devices). […] Unlabeled cAMP in the cell lysate competed with the D2-labeled cAMP against the cryptate-labeled antibody. Since a decrease in the measured intensity of the FRET signals represents a level of cAMP in the cells, the cAMP activities of the compounds are calculated as a change in FRET signals by adjusting an amount of dimethyl sulfoxide (DMSO).
For orientation: In TR-FRET formats the signal depends on donor and acceptor labels being close together.

The mark [1] stands for this setting: 1 h at 37° C., six concentrations, read-out: EC50.

Broadly, the EC50 is the concentration needed to bring the measured effect to its halfway point. For the molecule `CC(C)c1noc(N2CCC(COc3ccc(C4=CCC(C(=O)NC[C@@H](C)O)CC4)cc3)CC2)n1` (stereo partly drawn) [Example 28, N-((R)-2-hydroxypropyl)-4-(4-((1-(3-isopropyl-1,2,4-oxadiazol-5-yl)piperidin-4-yl)methoxy)phenyl)cyclohex-3-enecarboxamide], the EC50 under setting [1] was determined as 0.11 µM.

For `CC(C)c1noc(N2CCC(COc3ccc(C4=CCC(C(=O)NC[C@H](C)O)CC4)cc3)CC2)n1` (stereo partly drawn) [Example 29, N-((S)-2-hydroxypropyl)-4-(4-((1-(3-isopropyl-1,2,4-oxadiazol-5-yl)piperidin-4-yl)methoxy)phenyl)cyclohex-3-enecarboxamide], under setting [1], the EC50 is 0.095 µM. On the same count and under the same terms, the same measure for `CCc1cnc(N2CCC(COc3ccc(C4=CCC(C(=O)NC[C@@H](C)O)CC4)cc3)CC2)nc1` (stereo partly drawn) [Example 30, 4-(4-((1-(5-ethylpyrimidin-2-yl)piperidin-4-yl)methoxy)phenyl)-N-((R)-2-hydroxypropyl)cyclohex-3-enecarboxamide]: 0.105 µM; for `CC(C)c1noc(N2CCC(COc3ccc(C4=CCC(C(=O)NCCO)CC4)cc3)CC2)n1` (stereo not shown) [Example 31, N-(2-hydroxyethyl)-4-(4-((1-(3-isopropyl-1,2,4-oxadiazol-5-yl)piperidin-4-yl)methoxy)phenyl)cyclohex-3-enecarboxamide]: 0.26 µM; for `CC(C)(C)OC(=O)N1CCC(COc2ccc(C3=CCC(C(=O)NC[C@@H](O)CO)CC3)cn2)CC1` (stereo partly drawn) [Example 32, tert-butyl 4-((5-(4-((R)-2,3-dihydroxypropylcarbamoyl)cyclohex-1-enyl)pyridin-2-yloxy)methyl)piperidine-1-carboxylate]: 0.65 µM. On the same count and under the same terms, the same measure for `CC(C)(C)OC(=O)N1CCC(COc2ccc(C3=CCC(C(=O)NC[C@H](O)CO)CC3)cn2)CC1` (stereo partly drawn) [Example 33, tert-butyl 4-((5-(4-((S)-2,3-dihydroxypropylcarbamoyl)cyclohex-1-enyl)pyridin-2-yloxy)methyl)piperidine-1-carboxylate]: 0.6 µM.

For the molecule `CC(C)c1noc(N2CCC(COc3ccc(C4=CCC(C(=O)N(C)CCO)CC4)cc3)CC2)n1` (stereo not shown) [Example 34, N-(2-hydroxyethyl)-4-(4-((1-(3-isopropyl-1,2,4-oxadiazol-5-yl)piperidin-4-yl)methoxy)phenyl)-N-methylcyclohex-3-enecarboxamide], the concentration giving a half-maximal response (EC50) by setting is: under setting [1], 0.021 µM; (read-out: EC50 value) not above 0.05 µM. Turning to `CCN(CCO)C(=O)C1CC=C(c2ccc(OCC3CCN(c4nc(C(C)C)no4)CC3)cc2)CC1` (stereo not shown) [Example 35, N-ethyl-N-(2-hydroxyethyl)-4-(4-((1-(3-isopropyl-1,2,4-oxadiazol-5-yl)piperidin-4-yl)methoxy)phenyl)cyclohex-3-enecarboxamide], the concentration for a half-maximal effect (EC50) reads like this: under setting [1], 0.022 µM; (read-out: EC50 value) not above 0.05 µM. For the molecule `CC(C)c1noc(N2CCC(COc3ccc(C4=CCC(C(=O)N[C@H](C)CO)CC4)nc3)CC2)n1` (stereo partly drawn) [Example 36, N-((R)-1-hydroxypropan-2-yl)-4-(5-((1-(3-isopropyl-1,2,4-oxadiazol-5-yl)piperidin-4-yl)methoxy)pyridin-2-yl)cyclohex-3-enecarboxamide], the half-maximal effective concentration (EC50) under setting [1] came to 0.17 µM. For the molecule `CC(C)c1noc(N2CCC(COc3ccc(C4=CCC(C(=O)N[C@@H](C)CO)CC4)nc3)CC2)n1` (stereo partly drawn) [Example 37, N-((S)-1-hydroxypropan-2-yl)-4-(5-((1-(3-isopropyl-1,2,4-oxadiazol-5-yl)piperidin-4-yl)methoxy)pyridin-2-yl)cyclohex-3-enecarboxamide], under setting [1], the concentration for a half-maximal effect (EC50) is 0.3 µM. On to `CC(C)c1noc(N2CCC(COc3ccc(C4=CCC(C(=O)NC[C@@H](C)O)CC4)nc3)CC2)n1` (stereo partly drawn) [Example 38, N-((R)-2-hydroxypropyl)-4-(5-((1-(3-isopropyl-1,2,4-oxadiazol-5-yl)piperidin-4-yl)methoxy)pyridin-2-yl)cyclohex-3-enecarboxamide], for which the EC50 under setting [1] was determined as 0.45 µM. `CC(C)c1noc(N2CCC(COc3ccc(C4=CCC(C(=O)NC[C@H](C)O)CC4)nc3)CC2)n1` (stereo partly drawn) [Example 39, N-((S)-2-hydroxypropyl)-4-(5-((1-(3-isopropyl-1,2,4-oxadiazol-5-yl)piperidin-4-yl)methoxy)pyridin-2-yl)cyclohex-3-enecarboxamide]: the EC50 under setting [1] came out at 0.35 µM.

Consider `CC(C)c1noc(N2CCC(COc3ccc(C4=CCC(C(=O)NC[C@@H](O)CO)CC4)nc3)CC2)n1` (stereo partly drawn) [Example 40, N-((R)-2,3-dihydroxypropyl)-4-(5-((1-(3-isopropyl-1,2,4-oxadiazol-5-yl)piperidin-4-yl)methoxy)pyridin-2-yl)cyclohex-3-enecarboxamide], for which, under setting [1], the concentration for a half-maximal effect (EC50) was 0.5 µM. For `CC(C)c1noc(N2CCC(COc3ccc(C4=CCC(C(=O)NC[C@H](O)CO)CC4)nc3)CC2)n1` (stereo partly drawn) [Example 41, N-((S)-2,3-dihydroxypropyl)-4-(5-((1-(3-isopropyl-1,2,4-oxadiazol-5-yl)piperidin-4-yl)methoxy)pyridin-2-yl)cyclohex-3-enecarboxamide], under setting [1], the concentration for a half-maximal effect (EC50) stood at 0.65 µM. The same measure, in the same setting: the same measure for `CC(C)(C)OC(=O)N1CCC(COc2ccc(C3=CCC(C(=O)N4CC[C@H](O)C4)CC3)cn2)CC1` (stereo partly drawn) [Example 42, tert-butyl 4-((5-(4-((S)-3-hydroxypyrrolidine-1-carbonyl)cyclohex-1-enyl)pyridin-2-yloxy)methyl)piperidine-1-carboxylate]: 0.082 µM; for `CC(C)(C)OC(=O)N1CCC(COc2ccc(C3=CCC(C(=O)N4CC[C@@H](O)C4)CC3)cn2)CC1` (stereo partly drawn) [Example 43, tert-butyl 4-((5-(4-((R)-3-hydroxypyrrolidine-1-carbonyl)cyclohex-1-enyl)pyridin-2-yloxy)methyl)piperidine-1-carboxylate]: 0.085 µM.

As to `CC(C)(C)OC(=O)N1CCC(COc2ccc(C3=CCC(C(=O)N4CC[C@H](O)C4)CC3)cc2F)CC1` (stereo partly drawn) [Example 44, tert-butyl 4-((2-fluoro-4-(4-((S)-3-hydroxypyrrolidine-1-carbonyl)cyclohex-1-enyl)phenoxy)methyl)piperidine-1-carboxylate], the EC50 is, setting by setting: under setting [1], 0.013 µM; (read-out: EC50 value) not above 0.05 µM.

Turning to `CC(C)(C)OC(=O)N1CCC(COc2ccc(C3=CCC(C(=O)N4CC[C@@H](O)C4)CC3)cc2F)CC1` (stereo partly drawn) [Example 45, tert-butyl 4-((2-fluoro-4-(4-((R)-3-hydroxypyrrolidine-1-carbonyl)cyclohex-1-enyl)phenoxy)methyl)piperidine-1-carboxylate], the half-maximal effective concentration (EC50) reads like this: under setting [1], 0.025 µM; (read-out: EC50 value) not above 0.05 µM. `CC(C)c1noc(N2CCC(COc3ccc(C4=CCC(C(=O)NC(CO)CO)CC4)nc3)CC2)n1` (stereo not shown) [Example 46, N-(1,3-dihydroxypropan-2-yl)-4-(5-((1-(3-isopropyl-1,2,4-oxadiazol-5-yl)piperidin-4-yl)methoxy)pyridin-2-yl)cyclohex-3-enecarboxamide]: the EC50 under setting [1] worked out at 0.5 µM. In the case of `CC(C)c1noc(N2CCC(COc3ccc(C4=CCC(C(=O)NCC(C)(C)CO)CC4)nc3)CC2)n1` (stereo not shown) [Example 47, N-(3-hydroxy-2,2-dimethylpropyl)-4-(5-((1-(3-isopropyl-1,2,4-oxadiazol-5-yl)piperidin-4-yl)methoxy)pyridin-2-yl)cyclohex-3-enecarboxamide], the EC50 under setting [1] turned out to be 0.15 µM. As for `CC(C)c1noc(N2CCC(COc3ccc(C4=CCC(C(=O)N5CC[C@H](O)C5)CC4)cc3)CC2)n1` (stereo partly drawn) [Example 49, ((S)-3-hydroxypyrrolidin-1-yl)(4-(4-((1-(3-isopropyl-1,2,4-oxadiazol-5-yl)piperidin-4-yl)methoxy)phenyl)cyclohex-3-enyl)methanone], the EC50 reads like this: under setting [1], 0.026 µM; (read-out: EC50 value) not above 0.05 µM.

For `CCc1cnc(N2CCC(COc3ccc(C4=CCC(C(=O)NCC(F)F)CC4)cc3)CC2)nc1` (stereo not shown) [Example 50, N-(2,2-difluoroethyl)-4-(4-((1-(5-ethylpyrimidin-2-yl)piperidin-4-yl)methoxy)phenyl)cyclohex-3-enecarboxamide], under setting [1], the concentration for a half-maximal effect (EC50) turned out to be 0.095 µM. The same measure, in the same setting: the result for `CC(C)c1noc(N2CCC(COc3ccc(C4=CCC(C(=O)NCC(F)F)CC4)cc3)CC2)n1` (stereo not shown) [Example 51, N-(2,2-difluoroethyl)-4-(4-((1-(3-isopropyl-1,2,4-oxadiazol-5-yl)piperidin-4-yl)methoxy)phenyl)cyclohex-3-enecarboxamide] reads 0.066 µM; that for `CC(C)c1noc(N2CCC(COc3ccc(C4=CCC(C(=O)N5CCCC5)CC4)cc3)CC2)n1` (stereo not shown) [Example 52, (4-(4-((1-(3-isopropyl-1,2,4-oxadiazol-5-yl)piperidin-4-yl)methoxy)phenyl)cyclohex-3-enyl)(pyrrolidin-1-yl)methanone], 0.055 µM. Regarding `CC(C)c1noc(N2CCC(COc3ccc(C4=CCC(C(=O)N5CC[C@H](F)C5)CC4)cc3)CC2)n1` (stereo partly drawn) [Example 53, ((S)-3-fluoropyrrolidin-1-yl)(4-(4-((1-(3-isopropyl-1,2,4-oxadiazol-5-yl)piperidin-4-yl)methoxy)phenyl)cyclohex-3-enyl)methanone], the EC50 is 0.021 µM under setting [1] and not above 0.05 µM (read-out: EC50 value).

The record behind these values is patent US9758527B2, “Cyclohexene derivative, preparation method therefor, and pharmaceutical composition for preventing or treating metabolic diseases, containing same as active ingredient” (HYUNDAI PHARM CO., LTD., priority 2014, dated 2017).
